Consider one molecule from patent US11167007B2, “FOXM1 modulators and uses thereof” (City of Hope, priority 2016, dated 2021).

Molecules are shown by their SMILES.

Test [1] has as its system FOXM1. Kind of test: Western blot of FOXM1 levels in GT1-7 CARY cells. It counts as cell-based, murine. The note with it: relative to p84 loading control, FIG. 3C. The source says:
Western Blot. Cell lysates was separated on a 6% SDS page gel and transferred to a nitrocellulose membrane. The membrane was blocked for one hour in 5% skim milk dissolved in TBS-T and probed with the following antibodies ([…]): FoxM1 (rabbit, GeneTex), AR: 441 (mouse, Santa Cruz Biotechnology), β-catenin (rabbit 9562, Cell Signaling Technology), p84 (mouse, GeneTex) and actin (mouse, Santa Cruz Biotechnology). Horse radish peroxidase linked secondary antibodies were used along with ECL reagents for visualization. Western blots were quantified using Quantity One analysis software (BioRad).
It has been previously reported that thiostrepton causes decreased levels of FOXM1. Hegde et al, Nat Chem, 3(9):725-31 (2011); Gartel, Front Oncol, 3:150 (2013). […] The nuclear association between FOXM1 and β-catenin increases the transcriptional activity of both factors. Zhang et al, Cancer Cell, 20(4):427-42 (2011). β-catenin is a key AR coactivator in a variety of cells. Yang, J Biol Chem, 277(13):11336-44 (2002); Truica et al, Cancer Res, 60(17):4709-13 (2000). The inventors believed that thiostrepton could inhibit AR activity by limiting access to nuclear β-catenin via FOXM1 depletion. […] As expected, control actin protein was observed primarily in cytoplasmic fraction.
A general note: A western blot detects proteins with antibodies after separation by electrophoresis.

Test [2] deals with AR activity in LA muscle. Put plainly: RT-qPCR of androgen-regulated transcripts in LA muscle. In kind it is in vivo, rat. The note with it: rats, four genes, FIG. 5H. On the procedure: Animals and Drugs. This study was carried out in strict accordance with the recommendations in the Guide for the Care and Use of Laboratory Animals of the National Institutes of Health. All experiments were performed under the IUCAC approval of City of Hope. Animals were purchased from Jackson Laboratory (Bar Harbor, Main). For the pilot pharmacokinetic experiment, nine male Sprague Dawley rats (n=3) were administered 1, 10, or 100 mg/kg intraperitoneal injections thrice per week for four weeks. One hour following the final dose, blood and spinal fluid were collected and analyzed by mass spectrometry. For the efficacy experiment, rats were divided into 3 groups (n=7) as follows: intact, castrated, and thiostrepton. […] Following a treatment period of 7 days, rats were euthanized and organs harvested, weighed and processed for quantitative RT-PCR.
qRT-PCR. The quantitative RT-PCR method has been described by Jones et al, ACS Chem Biol, 3(7):412-8 (2008). […] Differences between experimental (x) and control (y) samples were normalized to RPL19 transcript levels (androgen unresponsive) and determined with the following calculation: (2^(Ctsgene1-Ctygene1))/(2^(CtxRPL19-CtyRPL19)) One-way analysis of variance was applied to determine statistical significant among groups, where p<0.05 was considered significant. […]
For orientation: Real-time PCR tracks product formation cycle by cycle.

Test [3] deals with T1, AR with a 112 glutamine tract (Homo sapiens, UniProt P10275, INS80QQQQQQQQQQQQQQQQQQQQQQQQQQQQQQQQQQQQQQQQQQQQQQQQQQQQQQQQQQQQQQQQQQQQQQQQQQQQQQQQQQQQQQQQQ).
T1 construct: expressed in transfected cells; host or cells: PC12 (ARQ112), inducible
Put plainly: Androgen-responsive luciferase reporter assay in PC12 (ARQ112) neuronal cells. It counts as cell-based. The note with it: PC12 cells expressing AR with 112 glutamine tract, FIG. 2B. The source says: Luciferase Reporter Assay. Cells were transfected using Lipofectamine Plus (Invitrogen) with a normalization plasmid (pRL-SV40, Promega) and an androgen responsive plasmid (MMTV-luciferase or PSA-luciferase) as described in Jones et al, ACS Chem Biol, 3(7):412-8 (2008), and, where indicated, with an shRNA plasmid targeting FOXM1 (adapted for mouse FOXM1 sequence targeting) a scrambled control shRNA plasmid, or ARQ24 or ARQ65 plasmids. Christensen et al, PLoS One, 8(1):e54556 (2013). The following day, cells and drugs were distributed to 96-well plates. 24 hours later, luciferase activity was assessed by a dual luciferase assay kit (Promega) on the Tecan plate reader. Samples were run in quadruplicates and a Student's t test was performed to determine significance, where p<0.05 was considered significant.
The ability of thiostrepton to inhibit AR activity in additional neuronal cells, including ReNcell CX cells PC12 cells, and in rat L6 skeletal muscle cells was examined (FIG. 2B). Donato et al, BMC Neurosci, 8:36 (2007); Yaffe, Proc Natl Acad Sci USA, 61(2):477-83 (1968).
SBMA is caused by the activity of polyglutamine-expanded AR, and experiments were conducted to investigate the effects of thiostrepton against polyglutamine-expanded AR. […]
A general note: Reporter assays use an easily measured gene product as a stand-in for the process of interest.

T1 sequence (P10275 with tags, fused parts or gaps with the stated changes): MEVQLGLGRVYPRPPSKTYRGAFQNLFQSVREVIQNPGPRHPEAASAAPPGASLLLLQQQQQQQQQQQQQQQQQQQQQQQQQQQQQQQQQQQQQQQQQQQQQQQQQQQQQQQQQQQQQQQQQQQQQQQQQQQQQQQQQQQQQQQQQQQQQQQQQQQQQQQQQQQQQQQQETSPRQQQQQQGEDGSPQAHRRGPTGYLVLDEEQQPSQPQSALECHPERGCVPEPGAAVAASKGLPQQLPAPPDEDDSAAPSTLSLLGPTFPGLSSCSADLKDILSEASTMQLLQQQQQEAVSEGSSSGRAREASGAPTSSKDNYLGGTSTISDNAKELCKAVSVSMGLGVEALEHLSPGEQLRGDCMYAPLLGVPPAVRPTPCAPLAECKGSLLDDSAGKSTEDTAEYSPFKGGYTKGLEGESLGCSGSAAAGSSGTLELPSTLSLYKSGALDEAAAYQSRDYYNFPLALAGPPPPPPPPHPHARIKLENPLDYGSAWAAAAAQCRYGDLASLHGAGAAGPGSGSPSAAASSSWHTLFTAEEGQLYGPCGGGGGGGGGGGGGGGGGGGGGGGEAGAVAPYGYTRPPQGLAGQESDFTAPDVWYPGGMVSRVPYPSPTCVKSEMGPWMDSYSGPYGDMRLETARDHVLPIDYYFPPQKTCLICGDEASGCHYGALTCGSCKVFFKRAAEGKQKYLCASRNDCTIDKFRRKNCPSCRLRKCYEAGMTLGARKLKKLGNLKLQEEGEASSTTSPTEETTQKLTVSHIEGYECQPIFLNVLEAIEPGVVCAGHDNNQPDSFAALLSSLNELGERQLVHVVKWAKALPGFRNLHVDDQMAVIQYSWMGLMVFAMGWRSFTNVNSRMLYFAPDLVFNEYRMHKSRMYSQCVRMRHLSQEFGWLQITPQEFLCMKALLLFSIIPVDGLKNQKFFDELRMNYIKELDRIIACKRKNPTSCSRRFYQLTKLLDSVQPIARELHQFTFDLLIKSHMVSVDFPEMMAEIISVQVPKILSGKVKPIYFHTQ

Consider `C=C(NC(=O)C(=C)NC(=O)c1csc(C2=N[C@@H]3c4csc(n4)[C@H]4NC(=O)c5csc(n5)[C@H]([C@](C)(O)[C@@H](C)O)NC(=O)[C@H]5CSC(=N5)/C(=C/C)NC(=O)[C@H]([C@@H](C)O)NC(=O)c5csc(n5)[C@]3(CC2)NC(=O)[C@H](C)NC(=O)C(=C)NC(=O)[C@H](C)NC(=O)[C@H]([C@@H](C)CC)N[C@@H]2C=Cc3c([C@H](C)O)cc(nc3[C@H]2O)C(=O)O[C@@H]4C)n1)C(N)=O` [thiostrepton], for which the “FOXM1 levels (Western blot)” value in test [1] was “slightly decreased”. The “androgen-dependent gene transcript levels in LA muscle” value in test [2] is on record as “did not significantly affect”. Besides, the “inhibition of AR activity (luciferase)” value in test [3] was “efficiently inhibited AR activity”.
